In patent US4282363A, “1-Nitro-2-(2-alkynylamino)-2-[(2-pyridylmethylthio)-ethylamino]ethylene derivatives” (Bristol-Myers Company, priority 1980, dated 1981):
Read-outs that look alike come from different tables or passages of the source.

Legend:
histamine H2 -receptor = target: T1, histamine H2 -receptor (Cavia porcellus, UniProt P47747); assay: Histamine H2-receptor antagonism, isolated guinea pig right atria assay (displacement of histamine concentration-response curve of atrial rate); design: species or system guinea pig (male Hartley); settings: for Histamine ED50 With 95% Confidence Limits (after test compound): histamine ED50 in presence of test compound 3 × 10^-5 M, 30 minute incubation; for Concentration-Response Curve Displacement Factor: test compound 3 × 10^-5 M, displacement of histamine curve to the right
T1 construct: The spontaneously beating right atrium was dissected free from other tissues; from tissue; host or cells: isolated, spontaneously beating right atrium of male Hartley guinea pigs
Method: Subsequent investigations by Hughes and Coret, Proc. Soc. […] Black et al., Agents and Actions, 3, 133 (1973) and Brimblecombe et al., Fed. […] The present comparative studies were carried out using a modification of the procedure reported by Reinhardt et al., Agents and Actions, 4, 217 (1974).
Male Hartley strain guinea pigs (350-450 gm.) were sacrificed by a blow on the head. The heart was excised and placed in a Petri dish of oxygenated (95% O2, 5% CO2) modified Krebs solution (g./liter: NaCl 6.6, KCl 0.35, MgSO4.7H2 O 0.295, KH2 PO4 0.162, CaCl2 0.238, NaHCO3 2.1 and dextrose 2.09). The spontaneously beating right atrium was dissected free from other tissues and a silk thread (4-0) attached to each end. The atrium was suspended in a 20 ml. muscle chamber containing oxygenated modified Krebs solution maintained at 32° C. Atrial contractions were recorded isometrically be means of a Grass FT 0.03 force displacement transducer and recordings of contractile force and rate were made with Beckman RP Dynograph.
A resting tension of 1 g. was applied to the atrium and it was allowed to equilibrate for 1 hour.
Concentration-response curve displacement factors were calculated as follows: [formula] […] [formula]

histamine H2 -receptors = settings: isolated right atria, cited from earlier work
gastric secretion [1] = settings: man, cited from earlier work
H2 -receptors = settings: compared with other H2 antagonists; cited from earlier work
[2] = clinical use; cited from earlier work
gastric secretion [3] = settings: animals; cited from earlier work
peptic ulcer disease = settings: cited from earlier work
[4] = 200-300 mg. tablets, multi daily doses; cited from earlier work

T1 sequence (P47747 whole entry): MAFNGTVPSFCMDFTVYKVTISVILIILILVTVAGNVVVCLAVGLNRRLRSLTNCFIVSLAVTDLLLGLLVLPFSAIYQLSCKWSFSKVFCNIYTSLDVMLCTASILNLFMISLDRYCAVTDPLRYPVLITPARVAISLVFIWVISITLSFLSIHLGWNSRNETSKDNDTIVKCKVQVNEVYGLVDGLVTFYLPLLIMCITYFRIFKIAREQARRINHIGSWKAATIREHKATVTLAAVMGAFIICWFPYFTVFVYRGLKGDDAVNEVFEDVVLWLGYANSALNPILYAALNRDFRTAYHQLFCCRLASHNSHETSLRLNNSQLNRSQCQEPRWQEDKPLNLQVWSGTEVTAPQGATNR

SMILES: NCCc1c[nH]cn1 [Histamine, histamine]
- histamine concentration giving maximal response (histamine H2 -receptor; final molar bath concentration, increase in atrial rate): 30 µM
- effect on contractile rate (histamine H2 -receptors; agonist): concentration-related increases in the contractile rate

SMILES: C#CCNC(=C[N+](=O)[O-])NCCSCc1ncccc1Cl [BL-6075, 1-Nitro-2-(2-propynlamino)-2-{2-[(3-chloro-2-pyridyl)-methylthio]ethylamino}ethylene]
- Histamine ED50 With 95% Confidence Limits (after test compound) (histamine H2 -receptor): 20.97 µg/mL
- Concentration-Response Curve Displacement Factor (histamine H2 -receptor): 52.77

SMILES: CNC(=S)NCCSCc1[nH]cnc1C [Metiamide]
- oral activity (gastric secretion [1]; oral): orally active in man
- H2 antagonist potency, comparison in words (H2 -receptors): more potent than burimamide
- toxicity (agranulocytosis) [2]: toxicity (agranulocytosis)

SMILES: CNC(=S)NCCCCc1c[nH]cn1 [Burimamide]
- inhibition of gastric secretion (gastric secretion [3]): inhibits gastric secretion
- inhibition of gastric secretion (gastric secretion [1]): inhibits gastric secretion
- clinical effectiveness as H2 -receptor antagonist (peptic ulcer disease; in vivo): first clinically effective H2 -receptor antagonist
- antagonism of H2-receptors (histamine H2 -receptors): competitive antagonist

SMILES: C#CCNC(=NCCSCc1ncccc1Cl)NC#N [BL-6083, N-Cyano-N'-(2-propyn-1-yl)-N"-{2-[(3-chloro-2-pyridyl)-methylthio]ethyl}guanidine]
- Histamine ED50 With 95% Confidence Limits (after test compound) (histamine H2 -receptor): 57.92 µg/mL
- Activity Ratio Relative to Cimetidine (histamine H2 -receptor; ratio of displacement factors, cimetidine = 1.0, times more potent/active than cimetidine): 8.19
- Concentration-Response Curve Displacement Factor (histamine H2 -receptor): 206.86

SMILES: CNC(=NC#N)NCCSCc1[nH]cnc1C [Cimetidine]
- Histamine ED50 With 95% Confidence Limits (after test compound) (histamine H2 -receptor): 4.80 µg/mL
- H2 antagonist potency, comparison in words (H2 -receptors): as effective an H2 antagonist as metiamide
- toxicity (agranulocytosis) [2]: without producing agranulocytosis
- therapeutic effectiveness in peptic ulcer disease (peptic ulcer disease; clinical evaluation): effective therapeutic agent in the treatment of peptic ulcer disease
- half-life [4]: relatively short
